From patent publication US20260216134A1, “CHARGED PI-CONJUGATED MOLECULES FOR THE TREATMENT OF MICROBIAL INFECTIONS” (priority 2023, published 2026)

How the values were obtained:
[1] = system: MRSA USA300; assay: Therapeutic index calculation (IC50 of mammalian cell lines / MIC); settings: ratio of average IC50 for A549 and HEK293 to MIC in MRSA USA300
Procedure: (§1) The biocompatibility of charged pi-conjugated compounds with mammalian cell lines was evaluated by studying the effects of different charged pi-conjugated compound concentrations on the viability of two mammalian cell lines: A549 (epithelial-like lung cells) and HEK293 (epithelial-like kidney cells). […] Dose-response curves were used to determine IC50 values, that is, the concentration of charged pi-conjugated compound needed to inhibit cell viability by 50%. […] The MIC of MRSA USA300 was used to calculate the therapeutic index. MRSA USA300 is a major contributor to community-associated MRSA infections, including skin and soft tissue infections, bacteraemia, endocarditis, bone and joint infections and nosocomial infections. […]
(§2) The biocompatibility of charged pi-conjugated compounds with mammalian cell lines was assessed by determining their impact on the mitochondrial activity of human alveolar basal epithelial adenocarcinoma cells (A549) and human embryonic kidney cells (HEK293T) cells, using the Presto Blue assay according to the manufacturer's protocol. […] After 8 h, Presto Blue cell viability reagent (Thermo Fisher Scientific, Waltham, MA, USA) was added to the cells, and after 2 h of incubation, fluorescence was measured using a microplate reader (BioTek Instruments Inc., Winooski, VT, USA). […] The therapeutic index was calculated from the ratio between IC50 and the MIC.

[2] = system: A549 (epithelial-like lung cells); assay: Presto Blue viability assay, A549; assay type: cell-based; settings: Homo sapiens, 8 h treatment, read-out: IC50 (concentration needed to inhibit cell viability by 50%)
Procedure: as §1, §2

[3] = system: HEK293 (epithelial-like kidney cells); assay: Presto Blue viability assay, HEK293; assay type: cell-based, human; settings: Homo sapiens, HEK293, 8 h, read-out: IC50 (concentration needed to inhibit cell viability by 50%)
Procedure: as §1, §2

[4] = system: MRSA USA300; assay: In vivo anti-infective activity in G. mellonella infected with MRSA; design: species or system Galleria mellonella; settings: 10-80 μM; vehicle-treated infected worms one day
Procedure: The in vivo anti-infective capacity of charged pi-conjugated compounds was evaluated in the invertebrate model G. mellonella infected with MRSA USA300. The survival curves shown in FIG. 21 illustrate the efficacy of two charged pi-conjugated compounds, BL 248 and BL 273, against MRSA USA300 infection in G. mellonella. With increasing concentrations of both molecules, there was a discernible improvement in survival compared with the vehicle-treated control group.
To evaluate the in vivo anti-infective activity of charged pi-conjugated compounds, MRSA USA300 was cultured overnight in tryptic soy broth and diluted to ~2×10^7 CFU mL^−1 in sterile phosphate-buffered saline based on OD600. Cohorts of five G. mellonella larvae (~300 mg each) were injected with 10 μL of the diluted bacterial suspension (2×10^5 […]) via the last left proleg, following larvae sterilization with 70% ethanol. One hour post-infection, the larvae were injected with increasing concentrations of charged pi-conjugated compounds or 1% DMSO (in PBS) as a negative control. Uninfected larvae were also used as controls. Larvae were incubated at 37° C., and survival was monitored afterward. Death was defined by complete melanization of the larval body and lack of movement in response to touch.

[5] = system: Gram-positive strains; assay: MIC / MIC50 by broth microdilution in panel of Gram-positive strains; assay type: cell-based; settings: MIC50 over all Gram-positive strains tested (Table 2)
Procedure: Antibacterial activity was assessed by determining the minimal inhibitory concentration (MIC) and the minimal bactericidal concentrations (MBC) and by monitoring time-dependent bacterial killing of exponentially growing cells. Bacterial cell suspensions (OD600≈0.02 in cation-adjusted Muller-Hinton Broth) were treated with increasing concentrations of the different molecules. The minimal inhibitory concentration (MIC) was defined as the minimal concentration of the molecule resulting in complete bacterial growth arrest. The minimal bactericidal concentration (MBC) was defined as the lowest concentration of the molecule that killed 99.9% of the inoculum. A molecule was determined to be bactericidal if the ratio of the MBC to the MIC was less than 4 to 6. […] In M. smegmatis, the antibacterial activity of charged pi-conjugated compounds was generally lower.
The MIC values for all Gram-positive strains tested (Table 2) were used to calculate the MIC50, i.e., the minimum inhibitory concentration needed to inhibit the growth of 50% of the tested isolates (FIG. 5A). […] When the average MIC50 values were evaluated, the most susceptible bacterial genera were Streptococcus sp., followed by Staphylococcus sp. In contrast, Propionibacterium sp. had the highest average MIC50 (FIG. 5B).
The broth microdilution method was used to determine the MIC of charged pi-conjugated compounds according to the CLSI guidelines. Charged pi-conjugated compound stock solutions (16 mM) were prepared in dimethyl sulfoxide (DMSO). Serial twofold dilutions of the charged pi-conjugated compounds were freshly prepared using the appropriate liquid media (Table 2), and 100 μL of each dilution was added to the appropriate wells of 96-well microtiter plates. The bacterial inoculum was further diluted in liquid media, and 100 μL was added to each well, resulting in a final cell density of ≈5×10^5 CFU mL^−1. […] A molecule was determined to be bactericidal if the ratio of the MBC to the MIC was less than 4 to 6. […]

[6] = Clonogenic assay cytotoxicity in A375 cells without light; assay type: cell-based, human; settings: human
Procedure: FIGS. 28A-28B provide a summary of the evidence of the cytotoxicity of charged pi-conjugated compounds without light. Toxicity was measured using clonogenic assay with 7 hours of incubation (contact time between molecules and A375 cells) and 7 days for colony formation. (FIG. 28A) The lethal concentration of the cyanine molecules to kill 50% of the A375 cells (Tox LC50) without light activation. (FIG. 28B) Chemical structure of exemplary charged pi-conjugated compounds. On average, 300 cells equal to 300 colonies were seeded and analyzed for each data point.
Both properties were measured using clonogenic assay with 7 hours of incubation (contact time between molecules and A375 cells) and 7 days for colony formation. 300 cells were seeded and analyzed for each data point.
More cytotoxicity tests were conducted in some additional molecules and using clonogenic assay for cell viability (FIG. 28). A375 cells were exposed to charged pi-conjugated compounds for 7 hours, in contrast to the previously presented assays which were conducted with crystal violet assay and 2 days of exposure. The data points showing the cytotoxicity quantification for each individual molecule are presented in FIG. 29, with resulting IC50 values summarized in Table 4.

[7] = system: A375 melanoma; assay: Toxicity on A375 melanoma versus normal melanocytes (A375 arm); assay type: cell-based, human; settings: 1 μM concentration
Procedure: (§3) FIG. 32 provides evidence of toxicity of charged pi-conjugated compounds on HEMa (normal melanocytes) versus on A375 melanoma using 1 day of incubation versus 2 days of incubation. BL-204, BL-141-2, BL-304 are aminocyanines. In contrast, TS-1-32 and GL-261-2 are two names for a carboxycyanine compound shown as GL-261-2 in FIG. 23.
This characterization is accurate for long exposures (~24 h) and in 200,000 cells/mL. The limits of toxic concentration (referenced herein as a therapeutic window) can vary with the exposure time and total cell number present in the test. For example, 1 μM concentration of charged pi-conjugated compounds are safe when used at 30 min exposure in the cell culture at 200,000 cells/mL. However, about higher than 2 μM cyanine becomes toxic (~8 μM) even at short exposure time (~30 min) for 200,000 cells/mL. In contrast, for a solid tumor this lethal concentration is expected to be higher since hundreds of millions of cells are contained in a small solid tumor. The dose may be calibrated and normalized by the total number of cells. The correct therapeutic window to kill cancer cells should be expressed in μg of charged pi-conjugated compound per 1 million of cells or ug of charged pi-conjugated compound per gram of cells. […]

[8] = Crystal violet cytotoxicity test in A375 cells without light activation; assay type: cell-based, human; settings: human
Procedure: The inhibitory concentration of charged pi-conjugated compounds needed to inhibit the cell growth by 50% (toxicity IC50).
Most of the charged pi-conjugated compounds are aminocyanines which are functionalized with alkyl amine group. The charged pi-conjugated compounds were added to cell cultures of A375 cancer cells (human melanoma) and their cytotoxicity was quantified by the crystal violet test and/or clonogenic assays for cell viability. […] The longer the exposure the most cytotoxic the charged pi-conjugated compounds are towards A375 cells. […] The same behavior is observed: the longer the exposure, the more cytotoxic. All molecules presented here are aminocyanines except GL-261-2 which is a carboxyl-cyanine. […] This was the first time a therapeutic window of concentration that can be tuned to selectively kill cancer and/or protect cells was suspected. In finding this therapeutic window concentration and time of exposure are important variables that should be fine tuned.
Based on the finding described above, a larger set of charged pi-conjugated compounds was evaluated for cytotoxicity against A375 cancer cells as shown in FIG. 25 and FIG. 26.
The IC50 is the concentration needed to inhibit the cell viability by 50%. These molecules in FIG. 25 and FIG. 26 were evaluated by crystal violet assay and using 2 days of exposure.

[9] = system: HEMa (normal melanocytes); assay: Toxicity on A375 melanoma versus normal melanocytes (HEMa arm); assay type: cell-based; settings: for safety for normal skin melanocyte cells (HEMa): 1 μM concentration
Procedure: as §3
This characterization is accurate for long exposures (~24 h) and in 200,000 cells/mL. The limits of toxic concentration (referenced herein as a therapeutic window) can vary with the exposure time and total cell number present in the test. For example, 1 μM concentration of charged pi-conjugated compounds are safe when used at 30 min exposure in the cell culture at 200,000 cells/mL. However, about higher than 2 μM cyanine becomes toxic (~8 μM) even at short exposure time (~30 min) for 200,000 cells/mL. In contrast, for a solid tumor this lethal concentration is expected to be higher since hundreds of millions of cells are contained in a small solid tumor. The dose may be calibrated and normalized by the total number of cells. The correct therapeutic window to kill cancer cells should be expressed in μg of charged pi-conjugated compound per 1 million of cells or ug of charged pi-conjugated compound per gram of cells. […] Therefore, the presently disclosed charged pi-conjugated compounds may be useful in a clinical application in patients where the charged pi-conjugated compounds could protect the normal tissue and selectively cause toxicity to cancer cells.

[10] = system: S. aureus ATCC 25923; assay: Mutation frequency (rifampin-resistant colonies) on repeated treatment; assay type: cell-based, Staphylococcus aureus; settings: frequency of rifampin-resistant colonies
Procedure: In addition, the mutation frequency (assessed as the frequency of rifampin-resistant colonies) of S. aureus ATCC 25923 subjected to repeated treatment with charged pi-conjugated compound or the conventional antibiotic ciprofloxacin was determined.
Mutation frequency was determined using rifampin resistance as a marker. The stored cells were revived overnight in LB broth and then plated on LB agar with and without rifampin (100 mg mL^−1) (Schaaff et al., 2002). The mutation frequency was calculated as the ratio of rifampin-resistant colonies to the total number of colonies.

Compound	IC50 at 7 h [6] [nM]	selectivity for killing cancer cells (A375) [7]	IC50 at 2 days [8] [nM]	cell viability of normal skin melanocyte cells [9]	safety for normal skin melanocyte cells (HEMa) [9]	also measured
CN(C)C(=O)CN1c2ccc3ccccc3c2C(C)(C)C1/C=C/C1=CC(=C/C=C2/N(C)c3ccc4ccccc4c3C2(C)C)/CCC1.I (stereo not shown) [BL 248]						therapeutic index [1]: 9.3; IC50 [2]: 14700 nM
CN(C)C(=O)CN1/C(=C/C=C2C=C(/C=C/C3=[N+](CC(=O)N(C)C)c4ccc5ccccc5c4C3(C)C)CCC/2)C(C)(C)c2c1ccc1ccccc21.[Br-] [BL 273, 3-(2-(dimethylamino)-2-oxoethyl)-2-((E)-2-((E)-3-((E)-2-(3-(2-(dimethylamino)-2-oxoethyl)-1,1-dimethyl-1,3-dihydro-2H-benzo[e]indol-2-ylidene)ethylidene)cyclohex-1-en-1-yl)vinyl)-1,1-dimethyl-1H-benzo[e]indol-3-ium]						IC50 [3]: 13700 nM; survival of infected worms [4]: three or more days; antibacterial activity according to MIC50 [5]: strongest antibacterial activity
CN(C)CCCCCC[N+]1=C(/C=C/C2=CC(=C/C=C3/N(C)c4ccc5ccccc5c4C3(C)C)/CCC2)C(C)(C)c2c1ccc1ccccc21.[I-] [BL-141-2, 3-(6-(dimethylamino)hexyl)-1,1-dimethyl-2-((E)-2-((E)-3-((E)-2-(1,1,3-trimethyl-1,3-dihydro-2H-benzo[e]indol-2-ylidene)ethylidene)cyclohex-1-en-1-yl)vinyl)-1H-benzo[e]indol-3-ium]	400	selective to specifically kill cancer cells	750	increased the cell viability	safe for normal skin melanocyte cells	
CN(C)CC[N+]1=C(/C=C/C2=CC(=C/C=C3/N(C)c4ccc5ccccc5c4C3(C)C)/CCC2)C(C)(C)c2c1ccc1ccccc21.[I-] [BL-204, 3-(2-(dimethylamino)ethyl)-1,1-dimethyl-2-((E)-2-((E)-3-((E)-2-(1,1,3-trimethyl-1,3-dihydro-2/I-benzo[e]indol-2-ylidene)ethylidene)cyclohex-1-en-1-yl)vinyl)-1H-benzo[e]indol-3-ium]	220	selective to specifically kill cancer cells	600	increased the cell viability	safe for normal skin melanocyte cells	
O=C(O)c1cn(C2CC2)c2cc(N3CCNCC3)c(F)cc2c1=O [ciprofloxacin]						mutation rate across treatment cycles [10]: marked increase across treatment cycles
